According to ChEMBL document CHEMBL2146457, “Development of 'DFG-out' inhibitors of gatekeeper mutant kinases” (Bioorg Med Chem Lett, 2012):

How the values were obtained:
[1] = Cytotoxicity against mouse BA/F3 cells expressing imatinib resistant Bcr-Abl […] mutant; type: functional, cell-based; details: BaF3
[2] = Cytotoxicity against mouse BA/F3 cells expressing wild type Bcr-Abl; type: functional, cell-based; details: BaF3
[3] = Cytotoxicity against wild type mouse BA/F3 cells; type: cell-based; details: BaF3
[4] = MRT in rat at 1 mg/kg, iv; type: ADME, organism-based; parameters: dose 1 mg/kg, route intravenous; details: in vivo
[5] = Cytotoxicity against mouse parental BA/F3 cells; details: BaF3
Rattus norvegicus = assay: Oral bioavailability in rat at 2 mg/kg; type: ADME, organism-based; details: in vivo
[6] = Cmax in rat at 2 mg/kg, po; type: ADME, organism-based; parameters: dose 2 mg/kg, route oral; details: in vivo
[7] = AUC in rat at 2 mg/kg, po; type: ADME, organism-based; parameters: dose 2 mg/kg, route oral; details: plasma
[8] = Clearance in rat at 1 mg/kg, iv; type: ADME, organism-based; parameters: dose 1 mg/kg, route intravenous; details: in vivo
[9] = Cmax in rat at 1 mg/kg, iv; type: ADME, organism-based; parameters: dose 1 mg/kg, route intravenous; details: in vivo
[10] = Clearance in rat at 2 mg/kg, po; type: ADME, organism-based; parameters: dose 2 mg/kg, route oral; details: in vivo
[11] = AUC in rat at 1 mg/kg, iv; type: ADME, organism-based; parameters: dose 1 mg/kg, route intravenous; details: plasma
[12] = MRT in rat at 2 mg/kg, po; type: ADME, organism-based; parameters: dose 2 mg/kg, route oral; details: in vivo
[13] = Half life in rat at 2 mg/kg, po; type: ADME, organism-based; parameters: dose 2 mg/kg, route oral; details: in vivo
[14] = Volume of distribution at steady state in rat at 1 mg/kg, iv; type: ADME, organism-based; parameters: dose 1 mg/kg, route intravenous; details: in vivo, read-out: Vdss
[15] = Half life in rat at 1 mg/kg, iv; type: ADME, organism-based; parameters: dose 1 mg/kg, route intravenous; details: in vivo

SMILES	EC50 [1]	EC50 [2]	EC50 [3]	also measured
O=C(Nc1ccc(N2CCNCC2)c(C(F)(F)F)c1)c1cccc(-c2ccc3nc(NC(=O)C4CC4)sc3n2)c1	2300 nM	2310 nM	2300 nM	
Nc1nc2ccc(-c3cccc(C(=O)Nc4cccc(C(F)(F)F)c4)c3)nc2s1	> 10000 nM	> 10000 nM	> 10000 nM	
CC(=O)Nc1nc2ccc(-c3cccc(C(=O)Nc4cccc(C(F)(F)F)c4)c3)nc2s1	3770 nM	5000 nM	> 10000 nM	
O=C(Nc1cccc(C(F)(F)F)c1)c1cccc(-c2ccc3nc(NC(=O)C4CC4)sc3n2)c1	960 nM	420 nM	910 nM	
O=C(Nc1cccc(C(F)(F)F)c1)c1cccc(-c2ccc3nc(NC(=O)C4CCNCC4)sc3n2)c1	> 10000 nM	> 10000 nM	> 10000 nM	
CC(=O)N1CCN(CCC(=O)Nc2nc3ccc(-c4cccc(C(=O)Nc5cccc(C(F)(F)F)c5)c4)nc3s2)CC1	> 10000 nM	5210 nM	> 10000 nM	
O=C(Nc1nc2ccc(-c3cccc(C(=O)Nc4cccc(C(F)(F)F)c4)c3)nc2s1)NC1CCNCC1	7180 nM	7600 nM	> 10000 nM	
Cc1nc(Nc2nc3ccc(-c4cccc(C(=O)Nc5cccc(C(F)(F)F)c5)c4)nc3s2)cc(N2CCNCC2)n1	2410 nM	1900 nM	6740 nM	
O=C(Nc1cccc(C(F)(F)F)c1)c1cccc(-c2ccc3nc(Nc4ccc(S(=O)(=O)N5CCNCC5)cc4)sc3n2)c1	> 10000 nM	6210 nM	> 10000 nM	
CCN1CCN(Cc2ccc(NC(=O)c3cccc(-c4ccc5nc(N)sc5n4)c3)cc2C(F)(F)F)CC1	> 10000 nM	> 10000 nM	> 10000 nM	
CCN1CCN(Cc2ccc(NC(=O)c3cccc(-c4ccc5nc(NC(C)=O)sc5n4)c3)cc2C(F)(F)F)CC1	193 nM	139 nM	4160 nM	
CCN1CCN(Cc2ccc(NC(=O)c3cccc(-c4ccc5nc(NC(=O)C6CC6)sc5n4)c3)cc2C(F)(F)F)CC1	156 nM		3080 nM	MRT [4]: 8.1 h; EC50 [5]: 3080 nM; F (Rattus norvegicus): 18.8%; Cmax [6]: 53.1 ng/mL; AUC [7]: 462 ng·h/mL; clearance [8]: 13.7 mL/min/kg; Cmax [9]: 292 ng/mL; CL/F [10]: 74.4 mL/min/kg; AUC [11]: 1230 ng·h/mL; MRT [12]: 7.7 h; half-life [13]: 4.7 h; Vd [14]: 6.5 L/kg; half-life [15]: 5.8 h
CCN1CCN(Cc2ccc(NC(=O)c3cccc(-c4ccc5nc(Nc6ccccn6)sc5n4)c3)cc2C(F)(F)F)CC1	276 nM	146 nM	3530 nM	
O=C(Nc1ccc(-n2ccnc2)cc1)c1cccc(-c2ccc3nc(NC(=O)C4CC4)sc3n2)c1	> 10000 nM	> 10000 nM	> 10000 nM	
Cc1cn(-c2cc(NC(=O)c3cccc(-c4ccc5nc(NC(=O)C6CC6)sc5n4)c3)cc(C(F)(F)F)c2)cn1	190 nM	380 nM	1990 nM	MRT [4]: 3.1 h; F (Rattus norvegicus): 3.7%; Cmax [6]: 32 ng/mL; AUC [7]: 136 ng·h/mL; clearance [8]: 9.5 mL/min/kg; Cmax [9]: 672 ng/mL; CL/F [10]: 303 mL/min/kg; AUC [11]: 1850 ng·h/mL; MRT [12]: 5.3 h; half-life [13]: 3.7 h; Vd [14]: 1.7 L/kg; half-life [15]: 2.4 h
CCN1CCN(Cc2ccc(NC(=O)c3ccc(C)c(-c4ccc5nc(NC(=O)C6CC6)sc5n4)c3)cc2C(F)(F)F)CC1	60 nM	1 nM	1230 nM	
Cc1cn(-c2cc(NC(=O)c3ccc(C)c(-c4ccc5nc(NC(=O)C6CC6)sc5n4)c3)cc(C(F)(F)F)c2)cn1	560 nM	30 nM	4670 nM	
CCN1CCN(Cc2ccc(NC(=O)c3ccc(F)c(-c4ccc5nc(NC(=O)C6CC6)sc5n4)c3)cc2C(F)(F)F)CC1	300 nM	20 nM	> 10000 nM	
Cc1cn(-c2cc(NC(=O)c3ccc(F)c(-c4ccc5nc(NC(=O)C6CC6)sc5n4)c3)cc(C(F)(F)F)c2)cn1	590 nM	20 nM	> 10000 nM	
CCN1CCN(Cc2ccc(C(=O)Nc3cccc(-c4ccc5nc(NC(=O)C6CC6)sc5n4)c3)cc2C(F)(F)F)CC1	780 nM	200 nM	> 10000 nM	
CCN1CCN(Cc2ccc(NC(=O)Nc3cccc(-c4ccc5nc(NC(=O)C6CC6)sc5n4)c3)cc2C(F)(F)F)CC1	13 nM	18 nM	690 nM	
Cc1cn(-c2cc(NC(=O)Nc3cccc(-c4ccc5nc(NC(=O)C6CC6)sc5n4)c3)cc(C(F)(F)F)c2)cn1	550 nM	1240 nM	> 10000 nM	
